Results on 2 compounds are retold here after patent US5710174A, “Factor XIIIA inhibitor” (Zymo Genetics, Inc., priority 1995, dated 1998).

One series has as its system plasma clots. The series can be described thus: Plasma clot lysis assay. The arrangement: species or system human. Particulars: 100 μM. On the procedure:
For this assay, 50 μl of one of a series of concentrations of iodoacetic acid, cerulenin, or ZG-1400a was added to 0.5 ml human citrated plasma (prepared from one blood donor) in 5 ml polypropylene tubes. The ZG-1400a and iodoacetic acid were individually prepared in 10% DMSO and tested using half-log dilutions, starting at a final assay concentration of 100 μM and diluting to 10 μM. Cerulenin was prepared in 10% ethanol and tested using half-log dilutions, starting at a final assay concentration of 100 μM and diluting to 10 μM.
Approximately 10^6 cpm ^125 I-fibrinogen (Amersham), 50 mM CaCl2 (20 mM above citrate concentration) and 5 units thrombin (bovine, Enzyme Research Labs) were added to each test and control tube. The tubes were incubated while rocking for 20 h at 37° C. Plasma clots formed in the tubes were washed three times with about 1 ml phosphate buffered saline (PBS). The plasma clots in each tube were counted after the PBS washes.
Approximately 2 ml of 50 mM Tris, pH 7.4, containing 50 mM NaCl, 28 μg plasminogen (human, Calbiochem), and 280 ng urokinase (human, Calbiochem) were added to the clots in test and control tubes. At 1, 2, and 4 h intervals, 25 μl aliquots of the samples were removed from each tube and counted.
The values shown in Table 3 represent the amount of lysis after plasma clots were formed for about 20 h and exposed to plasminogen and urokinase for about 4 h.

Another series deals with T1, papain (Carica papaya, UniProt P00784).
T1 construct: purchased Boehringer Mannheim
T1 sequence (P00784 134-345): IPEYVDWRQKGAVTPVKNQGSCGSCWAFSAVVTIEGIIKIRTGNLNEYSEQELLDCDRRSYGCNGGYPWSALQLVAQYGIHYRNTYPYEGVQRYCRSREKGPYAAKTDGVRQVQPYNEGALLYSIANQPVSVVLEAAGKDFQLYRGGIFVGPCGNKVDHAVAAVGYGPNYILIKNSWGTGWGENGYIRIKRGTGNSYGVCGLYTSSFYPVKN
The series can be described thus: Papain inhibition assay. In kind it is biochemical. On the procedure: For the papain inhibition assay, a buffer containing 0.1M NaPO4 and 2.5 mM EDTA at about pH 7.0 was used. An Azocoll™ solution was prepared by adding 5 mg Azocoll™ (Calbiochem; an insoluble, powdered cowhide to which a bright red dye is attached (azo-dye-bound collagen)) to the buffer while stirring. The Azocoll was prewarmed to about 37° C. 10 μl of 0.1M L-cysteine, 10 μl of 50 μg/ml papain (Boehringer Mannheim), 0.5 ml of Azocoll solution, and 50 μl of one of a series of concentrations of ZG-1400a, iodoacetamide, iodoacetic acid, cerulenin, or 50 μl of the DMSO or ethanol negative controls were added to duplicate 13×75 mm glass tubes. The ZG-1400a, iodoacetamide, and iodoacetic acid were individually prepared in 10% DMSO and tested using half-log dilutions, starting at a final assay concentration of 100 μM and diluting to 10 nM. Cerulenin was prepared in 10% ethanol and tested using half-log dilutions, starting at a final assay concentration of 100 μM and diluting to 10 nM. A negative (no inhibition) control for ZG-1400a, iodoacetamide and iodoacetic acid was 50 μl of 10% DMSO to give a final assay concentration of 1% DMSO in each control tube. A negative control for cerulenin was 50 μl of 10% ethanol to give a final assay concentration of 1% ethanol in each control tube. The test and control tubes then were incubated for 30 min at 37° C. in an agitated water bath.
After incubation, all of the tubes were centrifuged at 2000 RPM for 5 min. The supernatant was removed and its absorbance was read at 520 nm on a Beckman DU640 spectrophotometer to determine the amount of papain inhibition.

Series [1] has as its target T2, tissue transglutaminase (tTG) (Cavia cutleri, UniProt P08587).
T2 construct: purchased Sigma
T2 sequence (P08587 1-690): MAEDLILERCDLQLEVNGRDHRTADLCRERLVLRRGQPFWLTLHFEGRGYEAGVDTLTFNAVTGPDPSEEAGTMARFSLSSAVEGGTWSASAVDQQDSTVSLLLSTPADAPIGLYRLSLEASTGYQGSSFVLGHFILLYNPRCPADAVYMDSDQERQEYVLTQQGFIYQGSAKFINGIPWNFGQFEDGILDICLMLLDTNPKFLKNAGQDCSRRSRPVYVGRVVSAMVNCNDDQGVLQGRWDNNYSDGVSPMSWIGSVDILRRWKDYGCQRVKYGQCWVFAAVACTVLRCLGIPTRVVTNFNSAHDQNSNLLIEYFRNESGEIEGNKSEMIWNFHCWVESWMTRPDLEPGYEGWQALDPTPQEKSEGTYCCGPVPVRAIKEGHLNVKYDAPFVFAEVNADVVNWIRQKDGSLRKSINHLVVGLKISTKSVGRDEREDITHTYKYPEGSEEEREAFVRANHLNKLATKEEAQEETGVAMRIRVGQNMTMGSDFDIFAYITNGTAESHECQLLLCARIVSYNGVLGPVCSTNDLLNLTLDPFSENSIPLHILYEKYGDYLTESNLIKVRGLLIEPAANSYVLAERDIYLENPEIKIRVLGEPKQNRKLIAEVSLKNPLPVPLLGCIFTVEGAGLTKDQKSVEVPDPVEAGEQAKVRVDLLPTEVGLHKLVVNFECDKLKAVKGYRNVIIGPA
The series can be described thus: tTG screening assay. The class given is biochemical. The source says: Because FXIII is a member of the tissue transglutaminase (tTG) family, all potential FXIIIa inhibitors identified in the primary FXIIIa screening assay were further screened for tTG (non-FXIII-specific) inhibitory activity. The tTG screening assay was identical to the primary FXIIIa screening assay, except that tTG (Sigma) was used instead of FXIIIa and no thrombin or PPACK was used.
The determination of IC50 values was done the same as in the primary FXIIIa screening assay, except that purified compounds were used at varying concentrations (instead of crude culture extracts). The IC50 values allow one to make comparisons of one compound to another.

The target in a further series is T3, FXIIIa (Homo sapiens, UniProt P00488).
T3 sequence (P00488 39-732 limits assumed): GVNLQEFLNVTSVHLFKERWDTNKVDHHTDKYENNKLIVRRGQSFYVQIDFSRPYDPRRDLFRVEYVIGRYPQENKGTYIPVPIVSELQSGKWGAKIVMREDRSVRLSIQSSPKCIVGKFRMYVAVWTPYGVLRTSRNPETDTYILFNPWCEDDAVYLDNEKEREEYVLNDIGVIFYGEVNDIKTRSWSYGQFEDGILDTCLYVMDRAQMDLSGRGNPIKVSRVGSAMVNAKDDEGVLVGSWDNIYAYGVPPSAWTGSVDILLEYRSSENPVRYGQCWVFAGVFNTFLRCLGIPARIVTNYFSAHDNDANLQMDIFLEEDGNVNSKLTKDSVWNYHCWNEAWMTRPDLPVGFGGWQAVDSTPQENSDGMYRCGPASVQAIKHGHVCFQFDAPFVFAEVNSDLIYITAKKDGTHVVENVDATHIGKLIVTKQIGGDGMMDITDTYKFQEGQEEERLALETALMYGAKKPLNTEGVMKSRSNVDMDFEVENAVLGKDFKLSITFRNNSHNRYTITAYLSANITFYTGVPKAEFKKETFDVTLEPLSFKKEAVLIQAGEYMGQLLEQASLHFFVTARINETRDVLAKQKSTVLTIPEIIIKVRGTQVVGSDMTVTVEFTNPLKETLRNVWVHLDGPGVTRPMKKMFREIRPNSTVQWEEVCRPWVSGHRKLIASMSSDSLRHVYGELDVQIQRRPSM
The series can be described thus: Primary FXIIIa screening assay (cross-linking of biotinylated fibrinogen and immobilized fibronectin). In kind it is biochemical.

In the next series the test system is clot formation. To be noted: background; cited from earlier work.

Experimental for FXIIIa: The primary FXIIIa screening assay used a 96-well high throughput assay format. This assay assesses test sample inhibition of FXIIIa catalyzed cross-linking of biotinylated fibrinogen and immobilized fibronectin.
Test samples (possibly containing FXIIIa inhibitors) were added to 96-well plates coated with fibronectin, followed by the addition of FXIIIa, as described in the primary FXIIIa screening assay, below. Biotinylated fibrinogen was added to the wells, and streptavidin-alkaline phosphatase was used to detect biotinylated fibrinogen that had been cross-linked to fibronectin.
Purified fibronectin was diluted to 1 μg/ml in 0.1M Na2 CO3, pH 9.7, and added to control and test assay wells of 96-well plates at 100 μl/well. All wells were incubated overnight at 4° C.
After incubation, the plate wells were washed twice with 200 μl/well of wash buffer per wash to remove all fibronectin not bound to the wells. The wash buffer contained 0.135M NaCl, 2.7 mM KCl, 25 mM Tris at about pH 7.4, and 0.1% Tween 20® (Sigma Chemical Co., St. Louis, Mo.; polyoxyethylenesorbitan monolaurate). The plate wells were then blocked with 200 μl/well blocking buffer and incubated for 1-2 h at 37° C. The blocking buffer contained 0.135M NaCl, 2.7 mM KCl, 25 mM Tris at about pH 7.4, 0.1% Tween 20®, and 0.5% BSA (bovine serum albumin, Sigma fraction V; Sigma). After incubation, the plates wells were again washed with 200 μl/well of wash buffer to remove excess blocking buffer.
Briefly, fibrinogen was dialyzed against 0.1M NaHCO3, pH 8.5 (coupling buffer) at a concentration of 1 mg/ml. BNHS was dissolved in dimethylformamide at a concentration of 1.7 mg/ml, and added to fibrinogen in coupling buffer at a ratio of 30 μl BNHS to 1 ml fibrinogen. The mixture was incubated with rocking for 4 h at room temperature, dialyzed against PBS, and stored in aliquots at -80° C.
Biotinylated fibrinogen (40 μl of 20 μg/ml solution) was added to each plate well. Except in control wells (which received 10 μl of 10% DMSO alone), 10 μl of each of the 11,198 crude extracts in 10% DMSO were added to duplicate wells after the addition of biotinylated fibrinogen, resulting in a 1% final assay concentration of DMSO.
FXIIIa (recombinant human FXIIIa2 (ZymoGenetics), as described in European Patent No. 0 268 772, granted Apr. 26, 1995, and incorporated herein by reference) was diluted to 100 μg/ml in a solution of 50 mM Tris, 5 mM CaCl2 at pH 7.4 containing 1 unit/ml thrombin (bovine; Enzyme Research Labs) and incubated for 20 min at 37° C. FXIIIa then was diluted to 1 μg/ml in a cross-linking buffer consisting of the blocking buffer described above plus 20 mM CaCl2 and 75 ng/ml D-phenylalanyl-L-prolyl-L-arginine chloromethyl ketone (PPACK; Calbiochem, La Jolla, Calif.). Fifty microliters of FXIIIa in cross-linking buffer was added to each test and control well. All wells then were incubated for about 10 min at 37° C.
After incubation, the wells were washed twice with 200 μl/well of wash buffer to remove all biotinylated fibrinogen that was not cross-linked to fibronectin.

The IC50 is the midpoint of a concentration-inhibition curve. Take `O=C(O)CI` [Iodoacetic Acid, iodoacetic acid]: the “susceptibility of plasma clots to lysis by plasminogen and urokinase” value in the series on plasma clots is given as “significantly more susceptible to lysis”. Further, in the series with plasma clots (clots formed about 20 h, plasminogen and urokinase about 4 h), the “% Plasma Clot lysis” value was determined as 23%. The 50% inhibitory concentration (IC50) came to 700 nM against papain, 32 µM in series [1] and 350 µM against FXIIIa. Moreover, the “Papain inhibition (result in words, IC50 table)” value on papain (100 μM to 10 nM, 30 min at 37° C.) is listed as “did cause inhibition”.
`O=c1oc2ccccc2c(O)c1Cc1c(O)c2ccccc2oc1=O` [dicoumarin]: in the series with clot formation, the internal bleeding entry was “more prone to internal bleeding” and the toxicity result was “associated with toxicity”.
